In US5789186A, “Marker for cerebral apoplexy” (Oriental Yeast Co., Ltd., priority 1995, dated 1998):
Like-named read-outs stand apart in the source and are kept apart here.

How the values were obtained:
Format in all cases: biochemical
PGAM-M = PGAM-M (Homo sapiens, UniProt P15259); test: Effect of potassium tetrathionate on PGAM-M standard, automatic assay method (NADH decrease rate assay)
Text: (§1) Namely, 3-phosphoglycerate (Glycerate-3-P) is converted into 2-phosphoglycerate (Glycerate-2-P) by PGAM-B in the presence of 2,3-bisphosphoglycerate (Glycerate-2,3-P2) and the resulting product is converted into PEP and H2 O by enolase. Then, PEP is converted into pyruvate and ATP by pyruvate kinase (PK) in the presence of ADP, and lactate dehydrogenase (LDH) is acted on pyruvate thus obtained in the presence of NADH to conduct the rate assay of the decrease of NADH.
(§2) Effect of potassium tetrathionate on PGAM-B and PGAM-M was examined by an automatic assay method.
(§3) Standard preparations of the B-type and M-type isozymes (pooled serum base) were used as samples. These were diluted 1/1 to 1/8 with physiological saline to serve as samples. To the thus prepared samples were added potassium tetrathionate of various concentrations. After the reaction was carried out for 5 minutes, the quantity of the B-type and M-type PGAMs were determined by the automatic assay method.
(§4) The quantity of PGAM-B and PGAM-M were respectively determined using the reagent of Example 2 by the automatic assay method, and the results shown in Table 2 below were obtained.
(§5) Potassium tetrathionate (molecular weight of 302.4) was added to and dissolved in the PGAM activity assay reagent (R-1) so as to give a concentration of 2.25 mM (final concentration of 1.9 mM) (15 mg of potassium tetrathionate was dissolved in 22 ml of the R-1 reagent) and the M-type isozyme was inactivated to prepare a B-type PGAM activity assay reagent.
(§6) Five μl of a serum sample was combined with 250 μl of the solution of Reagent 1 (R-1) in which potassium tetrathionate was dissolved, and the mixture was allowed to stand for 5 minutes. During this period, the M-type (and MB-type) PGAM was inactivated and inhibited, and then the B-type PGAM activity was determined using Reagent 2 (R-2).
(§7) The reaction was initiated (substrate start) by adding 41 μl of Reagent 2 (R-2) because it contained glycerate-3-phosphate (substrate). The assay was started about 1.5 minutes after the addition of Reagent 2.
(§8) The assay was carried out using Hitachi 7150 model automatic analyzer with setting the assay code to RATE-A: 32-39 and the measuring temperature to 37° C. The decrease in absorbance A 340 nm associated with the decrease of NADH was measured for about 1.5 minutes. It should be noted that the assay was carried out at the secondary wavelength of 405 nm.
(§9) One unit of the enzyme (1 U: 1 unit) was defined as the amount of the enzyme that reduces 1 μmol of NADH for 1 minute at 37° C. Actual measured values were calculated by multiplying the rate assay value by a calibrating factor (K FACTOR).

PGAM-B = PGAM-B (Homo sapiens, UniProt P18669); test: Effect of potassium tetrathionate on PGAM-B standard, automatic assay method (NADH decrease rate assay); conditions: for activity at 1900 µM / activity at 3800 µM / activity at 7600 µM: 5 min, PGAM-B standard (pooled serum base), 5 min reaction, read-out: PGAM-B activity relative to 0 mM potassium tetrathionate (=100); for activity at 1900 µM: final concentration 1.9 mM; for activity at 3800 µM: final concentration 3.8 mM; for activity at 7600 µM: final concentration 7.6 mM
Chain of PGAM-B (P18669 whole entry): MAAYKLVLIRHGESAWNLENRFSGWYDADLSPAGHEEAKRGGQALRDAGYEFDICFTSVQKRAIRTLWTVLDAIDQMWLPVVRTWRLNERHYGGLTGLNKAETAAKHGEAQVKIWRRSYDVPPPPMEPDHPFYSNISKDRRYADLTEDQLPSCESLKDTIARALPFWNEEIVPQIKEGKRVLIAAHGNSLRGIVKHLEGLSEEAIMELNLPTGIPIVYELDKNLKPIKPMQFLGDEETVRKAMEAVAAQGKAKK
Text: as §1, §2, §3, §4, §5, §6, §7, §8, §9

B-type isozyme (PGAM-BB) = test: Inhibition test using purified PGAM isozymes, B-type; conditions: treatment with tetrathionic acid as PGAM inhibitor
Text: (§10) The assay method according to the present invention comprises treating a blood sample such as serum with a PGAM inhibitor to inactivate a specific isozyme, and then determining residual PGAM activity. For example, when tetrathionic acid is used as the PGAM inhibitor, almost 100% of M-type isozyme activity and about 50% of MB-type isozyme activity are lost, while B-type isozyme activity is hardly lost. Therefore, the B-type isozyme can be separately quantified by adding tetrathionic acid to serum to inactivate the M-type isozyme and measuring residual PGAM activity.
(§11) Incidently, according to the inhibition test using purified PGAM isozymes, only 50% of MB-type isozyme activity is lost by the treatment with tetrathionic acid, and 50% of the activity remains. However, since most of PGAM activities in normal serum and cerebral tissues are attributed to the B-type isozyme, residual activity of the MB-type isozyme can be practically disregarded in the case of diagnosis of cerebral apoplexy in a biological sample.

M-type isozyme (PGAM-MM) = test: Inhibition test using purified PGAM isozymes, M-type; conditions: treatment with tetrathionic acid as PGAM inhibitor
Text: as §10, §11

[1] = dilution rate 1/1 (control 183 U/L)
[2] = dilution rate 1/2 (control 91 U/L)
[3] = dilution rate 1/4 (control 46 U/L)
[4] = dilution rate 1/8 (control 22 U/L)

Chain of PGAM-M (P15259 whole entry): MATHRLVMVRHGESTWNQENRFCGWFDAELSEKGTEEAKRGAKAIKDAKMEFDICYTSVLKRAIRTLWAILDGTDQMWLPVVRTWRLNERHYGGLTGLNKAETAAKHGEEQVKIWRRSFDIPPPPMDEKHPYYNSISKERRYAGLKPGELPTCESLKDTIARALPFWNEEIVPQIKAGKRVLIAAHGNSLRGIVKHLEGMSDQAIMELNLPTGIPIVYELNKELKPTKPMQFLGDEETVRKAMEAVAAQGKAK

O=S(=O)([O-])SSS(=O)(=O)[O-].[K+].[K+] [potassium tetrathionate]
activity at 1900 µM (PGAM-M; 5 min, PGAM-M standard (pooled serum base), dilution rate 1/8 (control 332 U/L), final concentration 1.9 mM, 5 min reaction, read-out: PGAM-M activity relative to 0 mM potassium tetrathionate (=100)): 0%
activity at 3800 µM (PGAM-M; 5 min, PGAM-M standard (pooled serum base), dilution rate 1/8 (control 332 U/L), final concentration 3.8 mM, 5 min reaction, read-out: PGAM-M activity relative to 0 mM potassium tetrathionate (=100)): 0%
activity at 7600 µM (PGAM-M; 5 min, PGAM-M standard (pooled serum base), dilution rate 1/8 (control 332 U/L), final concentration 7.6 mM, 5 min reaction, read-out: PGAM-M activity relative to 0 mM potassium tetrathionate (=100)): 0%
Effect on the M-type isozyme (in words) (PGAM-M; summary of Table 2): specifically inactivated
activity at 1900 µM (PGAM-B; [1]): 98%
activity at 3800 µM (PGAM-B; [1]): 92%
activity at 7600 µM (PGAM-B; [1]): 81%
activity at 1900 µM (PGAM-B; [2]): 98%
activity at 3800 µM (PGAM-B; [2]): 91%
activity at 7600 µM (PGAM-B; [2]): 80%
activity at 1900 µM (PGAM-B; [3]): 97%
activity at 3800 µM (PGAM-B; [3]): 86%
activity at 7600 µM (PGAM-B; [3]): 59%
activity at 1900 µM (PGAM-B; [4]): 93%
activity at 3800 µM (PGAM-B; [4]): 93%
activity at 7600 µM (PGAM-B; [4]): 75%
Effect on the B-type isozyme (in words) (PGAM-B; summary of Table 2): no effect was observed

O=S(=O)(O)SSS(=O)(=O)O [tetrathionic acid]
B-type isozyme activity lost (in words) (B-type isozyme (PGAM-BB)): hardly lost
M-type isozyme activity lost (M-type isozyme (PGAM-MM)): ~100%
